Reference: patent US11492335B2, “Aryl or heteroaryl triazolone derivatives or salts thereof, or pharmaceutical compositions comprising the same” (YUHAN CORPORATION, priority 2018, dated 2022)
Structures can show the parent of a compound that is named as a salt. Where two headings read alike, the source gives them in different places.

Experiments:
Format in all cases: biochemical
[1] = molecular target: T1, recombinant human MAO-A (monoamine oxidase-A) (Homo sapiens, UniProt P21397); test: Activity on recombinant human MAO-A, Amplex Red method, 0.5 mM tyramine substrate; settings: read-out: Inhibitory Activity (IC50, nM) MAO-A
T1 construct: purchased Sigma-Aldrich
T1 sequence (P21397 1-527): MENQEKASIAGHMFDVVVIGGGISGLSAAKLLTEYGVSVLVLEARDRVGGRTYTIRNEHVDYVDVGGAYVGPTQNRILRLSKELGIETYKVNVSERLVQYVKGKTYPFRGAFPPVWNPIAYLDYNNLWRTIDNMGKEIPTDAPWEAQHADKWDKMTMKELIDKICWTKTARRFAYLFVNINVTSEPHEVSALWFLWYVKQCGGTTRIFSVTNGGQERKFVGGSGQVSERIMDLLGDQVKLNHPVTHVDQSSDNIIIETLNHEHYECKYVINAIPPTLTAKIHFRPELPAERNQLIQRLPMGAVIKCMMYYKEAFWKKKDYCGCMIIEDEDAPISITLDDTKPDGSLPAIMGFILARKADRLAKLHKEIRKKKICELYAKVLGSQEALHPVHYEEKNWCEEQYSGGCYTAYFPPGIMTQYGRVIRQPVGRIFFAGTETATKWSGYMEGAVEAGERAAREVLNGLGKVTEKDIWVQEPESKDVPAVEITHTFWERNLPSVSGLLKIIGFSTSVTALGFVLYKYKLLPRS
Description: (§1) The compounds according to the present technology were evaluated in terms of activity on recombinant human VAP-1 (R&D systems) by measuring the level of hydrogen peroxide in horseradish peroxidase (HRP)-coupled reaction using Amplex Red Hydrogen Peroxide Assay Kit (Molecular Probes, Invitrogen, USA). The experiment was carried out at room temperature using benzylamine as a substrate. In the HRP-coupled reaction, hydrogen peroxide oxidation of 10-acetyl-3,7-dihydroxyphenoxazine (Amplex Red reagent) produces resorufin, which is a highly fluorescent compound. Briefly, the test compound was dissolved in dimethyl sulfoxide (DMSO) at a concentration of 20 mM. The dose-response assessment was made by 1:3 serial dilution in DMSO, thereby creating an 8 point curve. The concentration of the upper part was controlled according to the efficacy of the compounds, followed by dilution with a reaction buffer solution to obtain a final DMSO concentration less than 1%. To each well of a 96 black well plate, human VAP-1 purified in 50 mM sodium phosphate buffer solution (pH7.4) was added. The test compounds dissolved in DMSO were incubated with the human VAP-1 enzymes at 37° C. for 30 minutes. After 30-minute incubation, each well is added with a reaction mixture containing 200 uM Amplex Red reagent prepared from 50 mM sodium phosphate buffer solution (pH 7.4), 1 mM benzylamine, and 1 U/mL HRP. Fluorescence intensity was measured at several time points during 1-2 hours using a microplate reader (Flexstation3, Molecular Devices) under the wavelength condition exciting at 544 nm and reading the emission at 590 nm. The inhibitory effect of the compounds was measured as a decrease (%) in the signal rate as compared to the control group without any inhibitor (only diluted DMSO). Data was fixed to a logistic model with four variables and IC50 value was calculated using GraphPad Prism program.
(§2) In addition, the compounds according to the present technology were evaluated in terms of activity on a recombinant human MAO-A (monoamine oxidase-A, Sigma-Aldrich) and a recombinant human MAO-B (monoamine oxidase-B, Sigma-Aldrich) by using as substrates, 0.5 mM tyramine and 1 mM benzylamine, respectively, with a method similar to the activity evaluation method for recombinant human VAP-1. The compounds according to the present technology were also evaluated in terms of activity on a recombinant human DAO (diamine oxidase, R&D systems) by using as a substrate 1 mM putrescine with a method similar to the activity evaluation method for recombinant human VAP-1.

[2] = molecular target: T2, recombinant human MAO-B (monoamine oxidase-B) (Homo sapiens, UniProt P27338); test: Activity on recombinant human MAO-B, Amplex Red method, 1 mM benzylamine substrate; settings: read-out: Inhibitory Activity (IC50, nM) MAO-B
T2 construct: purchased Sigma-Aldrich
T2 sequence (P27338 1-520): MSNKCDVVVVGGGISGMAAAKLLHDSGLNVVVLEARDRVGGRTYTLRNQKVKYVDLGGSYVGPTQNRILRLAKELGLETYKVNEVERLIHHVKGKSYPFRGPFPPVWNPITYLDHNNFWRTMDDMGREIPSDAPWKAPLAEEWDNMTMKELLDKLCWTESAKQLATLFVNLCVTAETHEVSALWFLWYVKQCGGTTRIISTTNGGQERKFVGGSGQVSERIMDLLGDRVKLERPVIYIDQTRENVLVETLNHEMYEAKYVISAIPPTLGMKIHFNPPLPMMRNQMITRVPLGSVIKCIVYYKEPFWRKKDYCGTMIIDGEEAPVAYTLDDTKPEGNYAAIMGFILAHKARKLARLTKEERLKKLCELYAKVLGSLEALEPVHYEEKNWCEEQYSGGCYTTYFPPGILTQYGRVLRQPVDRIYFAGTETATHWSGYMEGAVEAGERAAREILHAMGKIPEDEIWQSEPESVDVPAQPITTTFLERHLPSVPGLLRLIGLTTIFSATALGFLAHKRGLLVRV
Description: as §1, §2

[3] = molecular target: T3, recombinant human DAO (diamine oxidase) (Homo sapiens, UniProt P19801); test: Activity on recombinant human DAO, Amplex Red method, 1 mM putrescine substrate; settings: recombinant human DAO, read-out: Inhibitory Activity (IC50, nM) DAO
T3 construct: purchased R&D systems
T3 sequence (P19801 20-751): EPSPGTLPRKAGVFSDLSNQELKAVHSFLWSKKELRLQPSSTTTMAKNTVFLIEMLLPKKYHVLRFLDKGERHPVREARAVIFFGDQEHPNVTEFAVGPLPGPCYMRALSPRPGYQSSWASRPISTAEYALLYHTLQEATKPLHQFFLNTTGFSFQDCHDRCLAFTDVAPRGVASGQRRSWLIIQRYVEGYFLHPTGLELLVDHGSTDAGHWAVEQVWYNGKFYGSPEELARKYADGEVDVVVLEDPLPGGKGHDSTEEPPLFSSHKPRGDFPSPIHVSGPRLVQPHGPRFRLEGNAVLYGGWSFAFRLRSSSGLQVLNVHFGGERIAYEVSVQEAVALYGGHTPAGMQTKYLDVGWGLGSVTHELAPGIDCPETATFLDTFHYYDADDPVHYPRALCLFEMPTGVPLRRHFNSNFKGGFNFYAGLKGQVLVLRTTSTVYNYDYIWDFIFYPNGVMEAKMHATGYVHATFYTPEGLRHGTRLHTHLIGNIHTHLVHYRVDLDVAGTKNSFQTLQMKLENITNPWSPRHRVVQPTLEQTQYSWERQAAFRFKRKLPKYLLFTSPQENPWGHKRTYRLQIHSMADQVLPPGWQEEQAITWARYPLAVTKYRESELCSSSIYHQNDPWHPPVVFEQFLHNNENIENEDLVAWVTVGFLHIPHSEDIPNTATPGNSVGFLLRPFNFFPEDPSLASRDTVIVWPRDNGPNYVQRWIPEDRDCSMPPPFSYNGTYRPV
Description: as §1, §2

recombinant human VAP-1 = molecular target: T4, recombinant human VAP-1 (Homo sapiens, UniProt Q16853); test: Activity on recombinant human VAP-1, Amplex Red HRP-coupled hydrogen peroxide assay, benzylamine substrate; settings: recombinant human VAP-1, benzylamine substrate, read-out: Inhibitory Activity (IC50, nM) human VAP-1
T4 construct: purchased R&D systems
T4 sequence (Q16853 1-763): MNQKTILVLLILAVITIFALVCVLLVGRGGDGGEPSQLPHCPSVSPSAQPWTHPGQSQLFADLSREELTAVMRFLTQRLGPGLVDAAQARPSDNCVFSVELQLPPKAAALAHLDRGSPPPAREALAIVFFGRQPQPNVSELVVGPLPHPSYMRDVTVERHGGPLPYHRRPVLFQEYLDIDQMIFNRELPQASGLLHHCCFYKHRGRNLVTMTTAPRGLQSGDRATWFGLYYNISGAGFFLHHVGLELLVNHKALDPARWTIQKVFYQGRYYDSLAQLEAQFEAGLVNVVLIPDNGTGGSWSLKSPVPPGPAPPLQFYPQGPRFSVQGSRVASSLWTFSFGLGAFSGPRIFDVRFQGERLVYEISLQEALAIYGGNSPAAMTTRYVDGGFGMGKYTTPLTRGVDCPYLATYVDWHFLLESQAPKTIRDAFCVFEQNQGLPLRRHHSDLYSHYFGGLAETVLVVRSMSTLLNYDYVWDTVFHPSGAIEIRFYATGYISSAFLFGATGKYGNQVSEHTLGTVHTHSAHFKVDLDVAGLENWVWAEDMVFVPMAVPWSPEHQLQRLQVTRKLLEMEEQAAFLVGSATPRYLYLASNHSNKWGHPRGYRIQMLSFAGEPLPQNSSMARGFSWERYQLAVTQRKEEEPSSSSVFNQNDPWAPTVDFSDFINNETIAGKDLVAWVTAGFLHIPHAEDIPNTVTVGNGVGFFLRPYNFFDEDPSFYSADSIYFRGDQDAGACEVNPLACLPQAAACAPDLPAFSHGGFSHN
Description: as §1

[4] = 1 mM putrescine, * = between 10 and 100 nM, ** = between 300 and 1000 nM

Compound	IC50 ([1]; 0.5 mM tyramine substrate) [nM]	IC50 ([2]; 1 mM benzylamine substrate) [nM]	IC50 ([3]; 1 mM putrescine substrate) [nM]	IC50 (recombinant human VAP-1) [nM]	IC50 ([1]; 0.5 mM tyramine) [nM]	IC50 ([2]; 1 mM benzylamine) [nM]	IC50 [3, 4] [nM]	IC50 (recombinant human VAP-1; 30 min preincubation at 37° C.) [nM]
Cc1cc(-c2cc(C)c3c(c2)CCC(=O)N3)cnc1-n1cnn(C/C(=C/F)CN)c1=O [Example 154, 6-(6-{1-[(2E)-2-(aminomethyl)-3-fluoroprop-2-en-1-yl]-5-oxo-1,5-dihydro-4H-1,2,4-triazol-4-yl}-5-methylpyridin-3-yl)-8-methyl-3,4-dihydroquinolin-2(1H)-one hydrochloride]	> 100000	3000	190	0.3				
NC/C(=C\F)Cn1ncn(-c2cccc(-c3cccc(-c4ncon4)c3)c2)c1=O [Example 62, 2-[(2E)-2-(aminomethyl)-3-fluoroprop-2-en-1-yl]-4-[3′-(1,2,4-oxadiazol-3-yl)biphenyl-3-yl]-2,4-dihydro-3H-1,2,4-triazol-3-one]					> 100000	117	< 100	0.53
Cc1cc(-n2cnn(C/C(=C/F)CN)c2=O)ncc1-c1ccc(-c2nc[nH]n2)cc1 [Example 157, 2-[(2E)-2-(aminomethyl)-3-fluoroprop-2-en-1-yl]-4-{4-methyl-5-[4-(1H-1,2,4-triazol-3-yl)phenyl]pyridin-2-yl}-2,4-dihydro-3H-1,2,4-triazol-3-one]	> 100000	3790	< 100	0.3				
NC/C(=C\F)Cn1ncn(-c2ncc(Br)cc2F)c1=O [Example 36, 2-[(2E)-2-(aminomethyl)-3-fluoroprop-2-en-1-yl]-4-(5-bromo-3-fluoropyridin-2-yl)-2,4-dihydro-3H-1,2,4-triazol-3-one hydrochloride]					> 100000	3350	23	1.2

Other lines, results leading:

IC50 ([1]; 0.5 mM tyramine substrate) [nM]	IC50 ([2]; 1 mM benzylamine substrate) [nM]	IC50 ([3]; 1 mM putrescine substrate) [nM]	IC50 (recombinant human VAP-1) [nM]	IC50 ([1]; 0.5 mM tyramine) [nM]	IC50 ([2]; 1 mM benzylamine) [nM]	IC50 [3, 4] [nM]	IC50 (recombinant human VAP-1; 30 min preincubation at 37° C.) [nM]	Compound
> 100000	620	< 30	0.66					NC/C(=C\F)Cn1ncn(-c2cccc(-c3ccc4nonc4c3)n2)c1=O [Example 195, 2-[(2E)-2-(aminomethyl)-3-fluoroprop-2-en-1-yl]-4-[6-(2,1,3-benzooxadiazol-5-yl)pyridin-2-yl]-2,4-dihydro-3H-1,2,4-triazol-3-one]
> 100000	1900	2.6	0.5					NC/C(=C\F)Cn1ncn(-c2cccc(-c3ccc(-c4cnon4)cc3)n2)c1=O [Example 177, 2-[(2E)-2-(aminomethyl)-3-fluoroprop-2-en-1-yl]-4-{6-[4-(1,2,5-oxadiazol-3-yl)phenyl]pyridin-2-yl}-2,4-dihydro-3H-1,2,4-triazol-3-one hydrochloride]
> 100000	1200	19	0.5					CN(C)c1ncc(-c2cccc(-n3cnn(C/C(=C/F)CN)c3=O)n2)cc1F [Example 191, 2-[(2E)-2-(aminomethyl)-3-fluoroprop-2-en-1-yl]-4-[6′-(dimethylamino)-5′-fluoro-2,3′-bipyridin-6-yl]-2,4-dihydro-3H-1,2,4-triazol-3-one hydrochloride]
> 100000	396	< 100	1.8					CC(=O)Nc1cc(-c2cnc(-n3cnn(C/C(=C/F)CN)c3=O)cn2)ccn1 [Example 220, N-[4-(5-{1-[(2E)-2-(aminomethyl)-3-fluoroprop-2-en-1-yl]-5-oxo-1,5-dihydro-4H-1,2,4-triazol-4-yl}pyrazin-2-yl)pyridin-2-yl]acetamide]
> 100000	> 10000	27	0.3					Cn1cncc1C#Cc1cccc(-n2cnn(C/C(=C/F)CN)c2=O)n1 [Example 256, 2-[(E)-2-(aminomethyl)-3-fluoro-allyl]-4-[6-[2-(3-methylimidazol-4-yl)ethynyl]-2-pyridyl]-1,2,4-triazol-3-one]
